Measured values taken from patent US20040224958A1, “Pyridopyrimidinone derivatives for treatment of neurodegenerative disease” (priority 2000, published 2004).
Where two headings read alike, the source gives them in different places.

Assays:
[1] = biological target: Cdk5/p25 (Homo sapiens, UniProt Q00535); experiment: Cyclin-Dependent Kinase 5 (cdk5) Assay; format: biochemical
Protocol: Cyclin-Dependent Kinase 5 (cdk5) Assay
Enzyme assays for IC50 determinations and kinetic evaluation were performed in 96-well filter plates (Millipore MAPH NOB 10). […] All components except histone and ATP were added to wells, and the plate was placed on a shaker for 5 minutes. The reaction was started by adding histone and [^32P]ATP, and the plate was shaken at 30° C. for 45 minutes. The reaction was terminated by addition of 0.1 mL of 150 mM phosphoric acid. The plate was kept at 4° C. for 30 minutes to allow substrate to precipitate. The wells were then washed three times with 0.2 mL of 75 mM phosphoric acid and ^32P incorporation was determined with a beta plate counter (Wallac Inc, Gaithersburg, Md.).

[2] = biological target: cdk2/cyclinA (Homo sapiens, UniProt P24941); experiment: Cyclin-Dependent Kinase Assay cdk2/cyclinA
Protocol: Cyclin-Dependent Kinase Assays (cdk2/cyclinE, cdk2/cyclinA, cdc2/cyclinB)
All components except the ATP were added to the wells, and the plate was placed on a plate mixer for 2 minutes. The reaction was begun by addition of [^32P]ATP, and the plate was incubated at 25° C. for 15 minutes. The reaction was terminated by addition of 0.1 mL of 20% TCA. The plate was kept at 4° C. for at least 1 hour to allow the substrate to precipitate. The wells were then washed five times with 0.2 mL of 10% TCA and ^32p incorporation determined with a beta plate counter (Wallac Inc., Gaithersburg, Md.).

[3] = biological target: cdk4/D (Homo sapiens, UniProt P11802); experiment: Cyclin-Dependent Kinase 4 (cdk4) Assay; format: biochemical
Chain of cdk4/D (P11802 whole entry): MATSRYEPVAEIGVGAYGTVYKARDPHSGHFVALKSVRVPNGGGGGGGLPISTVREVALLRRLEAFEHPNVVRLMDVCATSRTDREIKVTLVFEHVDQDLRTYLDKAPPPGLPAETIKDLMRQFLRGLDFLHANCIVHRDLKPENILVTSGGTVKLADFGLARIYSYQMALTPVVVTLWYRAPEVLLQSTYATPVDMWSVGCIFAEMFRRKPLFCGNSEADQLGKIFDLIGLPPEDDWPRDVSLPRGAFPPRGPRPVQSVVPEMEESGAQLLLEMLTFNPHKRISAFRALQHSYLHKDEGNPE
Chain of cdk4/D (P24385 whole entry, further chain): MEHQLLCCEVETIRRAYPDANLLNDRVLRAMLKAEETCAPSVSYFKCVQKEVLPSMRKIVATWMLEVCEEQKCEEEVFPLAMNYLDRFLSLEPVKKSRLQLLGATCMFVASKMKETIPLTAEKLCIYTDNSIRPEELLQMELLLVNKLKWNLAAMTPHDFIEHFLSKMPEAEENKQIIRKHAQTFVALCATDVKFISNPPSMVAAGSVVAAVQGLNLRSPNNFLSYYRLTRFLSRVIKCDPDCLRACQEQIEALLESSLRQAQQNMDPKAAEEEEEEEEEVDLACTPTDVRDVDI

[4] = biological target: cdk2/cyclinE (Homo sapiens, UniProt P24941); experiment: Cyclin-Dependent Kinase Assay cdk2/cyclinE
[5] = biological target: cdc2/cyclinB (Homo sapiens, UniProt P06493); experiment: Cyclin-Dependent Kinase Assay cdc2/cyclinB
Chain of cdc2/cyclinB (P06493 whole entry): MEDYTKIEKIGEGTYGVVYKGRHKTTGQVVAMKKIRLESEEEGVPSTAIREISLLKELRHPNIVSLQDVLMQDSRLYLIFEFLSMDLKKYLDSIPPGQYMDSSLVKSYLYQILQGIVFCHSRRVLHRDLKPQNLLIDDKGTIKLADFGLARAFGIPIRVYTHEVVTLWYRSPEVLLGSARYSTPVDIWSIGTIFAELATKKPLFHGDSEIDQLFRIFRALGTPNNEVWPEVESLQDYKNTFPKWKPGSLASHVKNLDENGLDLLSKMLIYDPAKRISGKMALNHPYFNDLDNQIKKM
Chain of cdc2/cyclinB (P14635 whole entry, further chain): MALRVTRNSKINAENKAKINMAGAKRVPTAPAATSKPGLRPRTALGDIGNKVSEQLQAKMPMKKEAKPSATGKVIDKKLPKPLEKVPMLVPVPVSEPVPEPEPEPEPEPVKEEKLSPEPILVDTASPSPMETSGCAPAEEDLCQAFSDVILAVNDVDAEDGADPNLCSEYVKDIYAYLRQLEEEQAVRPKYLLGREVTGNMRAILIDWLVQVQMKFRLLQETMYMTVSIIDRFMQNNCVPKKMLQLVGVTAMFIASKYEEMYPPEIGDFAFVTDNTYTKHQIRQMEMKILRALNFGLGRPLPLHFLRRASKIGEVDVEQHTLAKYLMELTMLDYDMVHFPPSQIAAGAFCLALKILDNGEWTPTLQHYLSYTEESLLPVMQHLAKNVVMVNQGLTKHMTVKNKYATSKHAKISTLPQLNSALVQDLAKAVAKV

Compound | melting point [°C] | IC50 ([1]; Table 1) [µM] | IC50 ([3]; Table 1, read-out: cdk4/D IC50) [µM] | other results
CN(C)c1ccc(Nc2ncc3ccc(=O)n(C4CCCCC4)c3n2)cc1 [Example 147, 8-Cyclohexyl-2-(4-dimethylamino-phenylamino)-8H-pyrido[2,3-d]pyrimidin-7-one] | 204 to 205 | 0.024 |  | 
CCn1c(=O)ccc2cnc(Nc3ccc(OC)cc3)nc21 [Example 51, 8-Ethyl-2-(4-methoxyphenylamino)-8H-pyrido[2,3-d]pyrimidin-7-one] | 196 to 197 | 0.049 |  | 
CN1CCN(c2ccc(Nc3ncc4ccc(=O)n(C5CC5)c4n3)cc2)CC1 [Example 136, 8-Cyclopropyl-2-[4-(4-methyl-piperazin-1-yl)-phenylamino]-81H-pyrido[2,3-d]pyrimidin-7-one] | 210 to 211 | 0.24 |  | 
CCn1c(=O)ccc2cnc(Nc3cccc(F)c3)nc21 [Example 89, 8-Ethyl-2-(3-fluorophenylamino)-8H-pyrido[2,3-d]pyrimidin-7-one] | 210 to 212 | 0.393 |  | 
CCn1c(=O)ccc2cnc(Nc3ccc(OC)c(F)c3)nc21 [Example 90, 8-Ethyl-2-(3-fluoro-4-methoxyphenylamino)-8H-pyrido[2,3-d]pyrimidin-7-one] | 196 to 198 | 0.029 |  | 
CCn1c(=O)ccc2cnc(Nc3cccc(OC(F)(F)C(F)F)c3)nc21 [Example 54, 8-Ethyl-2-[3-(1,1,2,2-tetrafluoroethoxy)-phenylamino]-8H-pyrido[2,3-d]-pyrimidin-7-one] | 175 to 176 | 0.568 |  | 
CCn1c(=O)ccc2cnc(Nc3ccccc3)nc21 [Example 18, 8-Ethyl-2-phenylamino-8H-pyrido[2,3-d]pyrimidin-7-one] | 203 to 204 | 0.065 |  | 
O=c1ccc2cnc(Nc3ccc(F)cc3)nc2n1C1CCCCC1 [Example 148, 8-Cyclohexyl-2-(4-fluoro-phenylamino)-8H-pyrido[2,3-d]pyrimidin-7-one] | 209 to 211 |  | 0.197 | IC50 ([2]; cdk2/A IC50, Table 1): 0.0775 µM; IC50 ([4]; cdk2/E IC50, Table 1): 0.0535 µM; IC50 [5]: 1.82 µM
O=c1ccc2cnc(Nc3ccc(N4CCC(CCN5CCOCC5)CC4)cc3)nc2n1C1CCCCC1 [Example 258] | 245 to 246 |  | 0.0075 | IC50 ([2]; cdk2/A IC50, Table 1): 0.0733 µM; IC50 ([4]; cdk2/E IC50, Table 1): 0.2 µM; IC50 [5]: 0.599 µM
8-Ethyl-2-(pyrimidin-4-ylamino)-8H-pyrido[2,3-d]pyrimidin-7-one [Example 50] |  | 0.027 | 2 | 
O=c1ccc2cnc(Nc3ccccc3)nc2n1C1CC1 [Example 135, 8-Cyclopropyl-2-phenylamino-8H-pyrido[2,3-d]pyrimidin-7-one] | 191 to 193 | 0.493 |  | 
O=c1ccc2cnc(Nc3ccccc3)nc2n1-c1ccccc1 [Example 101, 2-Phenylamino-8-phenyl-8H-pyrido[2,3-d]pyrimidin-7-one] |  | 0.165 |  | 
O=c1ccc2cnc(Nc3ccccc3)nc2n1C1CCCCC1 [Example 131, 8-Cyclohexyl-2-phenylamino-8H1-pyrido[2,3-d]pyrimidin-7-one] | 202 to 204 | 0.015 |  | 
CN(C)CCCN1CCN(c2ccc(Nc3ncc4ccc(=O)n(C5CCCCC5)c4n3)cc2)CC1 [Example 144] |  | 0.0394 | 0.016 | IC50 ([2]; read-out: cdk2/A IC50, Table 1): 0.102 µM; IC50 ([4]; read-out: cdk2/E IC50, Table 1): 0.043 µM; IC50 ([5]; read-out: cdk1/B IC50, Table 1): 0.344 µM
CCn1c(=O)ccc2cnc(Nc3ccc(N4CCN(C)CC4)cc3)nc21 [Example 53, 8-Ethyl-2-[4-(4-methylpiperazin-1-yl)-phenylamino]-8H-pyrido[2,3-d]-pyrimidin-7-one] | 185 to 186 | 0.239 |  | 
CCn1c(=O)ccc2cnc(Nc3ccccc3OC)nc21 [Example 92, 8-Ethyl-2-(2-methoxyphenylamino)-8H-pyrido[2,3-d]pyrimidin-7-one] | 126 to 128 | 1.68 |  | 
CC(C)n1c(=O)ccc2cnc(Nc3ccc(N4CCN(C)CC4)cc3)nc21 [Example 60, 8-Isopropyl-2-[4-(4-methylpiperazin-1-yl)-phenylamino]-8H-pyrido[2,3-d]-pyrimidin-7-one] |  | 0.017 |  | 
O=c1ccc2cnc(Nc3ccc(N4CCCCC4)cc3)nc2n1C1CCOC1 (racemic) [Example 200, 2-(4-Piperidin-1-yl-phenylamino)-8-(tetrahydro-furan-3-yl)-8H-pyrido[2,3-d]pyrimidin-7-one] | 181 to 182 |  | 0.219 | IC50 ([2]; cdk2/A IC50, Table 1): 0.285 µM; IC50 ([4]; cdk2/E IC50, Table 1): 1.9 µM; IC50 [5]: 4.34 µM
8-Isopropyl-2-(4-methoxy-phenylamino)-8H-pyrido[2,3-d]pyrimidin-7-one [Example 622] |  |  |  | IC50 ([2]; read-out: Cdk2/A IC50, Table 3): 0.392 µM; IC50 ([3]; Table 3, read-out: Cdk4 IC50): 4.08 µM; IC50 ([4]; read-out: Cdk2/E IC50, Table 3): 0.54 µM; IC50 ([1]; Table 3): 0.03 µM
CCN1C(=O)CCc2cnc(Nc3ccccc3)nc21 [Example 69, 8-Ethyl-2-phenylamino-5,8-dihydro-6H-pyrido[2,3-d]pyrimidin-7-one] | 146 to 147 | 0.065 |  | 
O=c1ccc2cnc(Nc3ccccc3)nc2n1C1CCCC1 [Example 108, 8-Cyclopentyl-2-phenylamino-8H-pyrido[2,3-d]pyrimidin-7-one] | 188 to 192 | 0.026 |  | 
O=c1ccc2cnc(Nc3ccc(SC(F)(F)F)cc3)nc2n1C1CC2CCC1C2 (stereo not drawn) [Example 221, 8-Bicyclo[2.2.1]hept-2-yl-2-(4-trifluoromethylsuffanyl-phenylamino)-8H-pyrido[2,3-d]pyrimidin-7-one] |  | 0.349 | 0.32 | IC50 ([2]; read-out: cdk2/A IC50, Table 1): 0.37 µM; IC50 ([4]; read-out: cdk2/E IC50, Table 1): 0.511 µM; IC50 ([5]; read-out: cdk1/B IC50, Table 1): 1.12 µM
CC1CN(c2ccc(Nc3ncc4ccc(=O)n(C5CC6CCC5C6)c4n3)cc2)CC(C)N1 (stereo not drawn) [Example 255] |  | 0.0321 | 0.003 | IC50 ([2]; read-out: cdk2/A IC50, Table 1): 0.0675 µM; IC50 ([4]; read-out: cdk2/E IC50, Table 1): 0.124 µM; IC50 ([5]; read-out: cdk1/B IC50, Table 1): 0.335 µM
CCC(CC)n1c(=O)ccc2cnc(Nc3ccccc3)nc21 [R′=H, R″=H, R2=1-ethylpropyl, 8-(1-Ethylpropyl)-2-phenylamino-8H-pyrido[2,3-d]pyrimidin-7-one] |  |  |  | IC50 ([2]; Cdk2/A IC50, Table 3): 0.127 µM; IC50 ([3]; Table 3, read-out: Cdk4 IC50): 0.159 µM; IC50 ([4]; Cdk2/E IC50, Table 3): 0.2 µM; IC50 ([1]; Table 3): 0.0087 µM
O=c1ccc2cnc(Nc3ccc(N4CCCCC4)cc3)nc2n1C1CCCCCC1 [Example 163, 8-Cycloheptyl-2-(4-piperidin-1-yl-phenylamino)-8H-pyrido[2,3-d]primidin-7-one] |  | 0.15 | 0.0315 | IC50 ([2]; read-out: cdk2/A IC50, Table 1): 0.0668 µM; IC50 ([4]; read-out: cdk2/E IC50, Table 1): 0.193 µM; IC50 ([5]; read-out: cdk1/B IC50, Table 1): 0.642 µM
O=c1ccc2cnc(Nc3ccc(N4CCCC(O)C4)cc3)nc2n1C1CC2CCC1C2 (stereo not drawn) [Example 254] |  | 0.0449 | 0.0035 | IC50 ([2]; cdk2/A IC50, Table 1): 0.028 µM; IC50 ([4]; cdk2/E IC50, Table 1): 0.064 µM; IC50 [5]: 0.175 µM
O=c1ccc2cnc(Nc3ccc(N4CCCCC4)cc3)nc2n1[C@H]1C[C@H]2CC[C@@H]1C2 (relative stereo) [Example 229, 8-Dicyclo[2.2.1]hept-2-yl-2-(4-piperidin-1-yl-phenylamino)-8H-pyrido[2,3-d]pyrimidin-7-one] |  | 0.288 | 2.8 | IC50 ([2]; cdk2/A IC50, Table 1): 0.997 µM; IC50 ([4]; cdk2/E IC50, Table 1): 3 µM; IC50 [5]: 0.44 µM
O=c1ccc2cnc(Nc3ccccc3)nc2[nH]1 [Example 32, 2-Phenylamino-8H-pyrido[2,3-d]pyrimidin-7-one] |  | 1.43 |  | 
